According to patent publication US10308686B2, “Gamma-AApeptides with potent and broad-spectrum antimicrobial activity” (priority 2012, dated 2019):
Converted amounts (≈) assume the structure as drawn. Read-outs that look alike come from different tables or passages of the source. No end group written: not given here.

Experiments:
[1] = tested on: C. albicans (ATCC 10231)
[2] = tested on: methicillin-resistant S. aureus (ATCC 33592); details: for MIC, Gram positive S. aureus: Table 7
[3] = tested on: multi-drug resistant S. epidermidis (RP62A); details: for MIC, Gram positive S. epidermidis: Table 7
[4] = tested on: human red blood cells (hRBC's); assay: Hemolysis assay; type: cell-based; details: for Hemolysis HC10 / Hemolysis HC50: red cells of human
How it was run: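 Washed human RBCs (K2 EDTA) as 5% v/v suspension in PBS, mixed 1:1 with two-fold serial peptide dilutions (250–1.6 μg/ml, or 1 mg/ml–6.3 μg/ml for lipidated γ-AApeptides) in PBS; 1 h at 37 °C. Supernatant OD 360 nm, normalised to PBS (0%) and 0.2% Triton-X-100 (100%); H50 = concentration giving 50% hemolysis.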

[5] = tested on: vancomycin-resistant E. faecalis (ATCC 700802); details: for MIC, Gram positive E. faecalis: Table 7
[6] = tested on: E. coli (JM109)
[7] = tested on: B. subtilis (BR151)
[8] = tested on: B. anthracis
[9] = tested on: K. pneumoniae (ATCC 13383)
[10] = tested on: Gram-positive and Gram-negative bacteria and the fungus C. albicans; assay: Antimicrobial assays, whole panel (statements in words); type: cell-based
[11] = tested on: multi-drug resistant P. aeruginosa ATCC 27853; details: ATCC 27853
[12] = tested on: S. aureus ATCC 33592; type: cell-based; details: serial passage at half-MIC
[13] = tested on: methicillin-resistant S. aureus (MRSA, USA100 lineage)
[14] = tested on: human red blood cells (hRBC's); details: cited from earlier work

Compound	MIC, Fungi C. albicans ([1]; ATCC 10231, 48 h) [µg/mL]	MIC, S. aureus (methicillin-resistant) ([2]; Table 1) [µg/mL]	MIC, S. epidermidis (multi-drug resistant) ([3]; Table 1) [µg/mL]	Hemolysis (H50) [4] [µg/mL]	MIC, E. faecalis (vancomycin-resistant) ([5]; Table 1) [µg/mL]	MIC, E. coli [6] [µg/mL]	MIC, B. subtilis [7] [µg/mL]	MIC, B. anthracis (lethal bioweapon) ([8]; Table 1) [µg/mL]	MIC, K. pneumoniae (causing pneumonia) [9] [µg/mL]	MIC, Fungi, C. albicans ([1]; ATCC 10231) [µg/mL]	MIC, Gram positive S. aureus [2] [µg/mL]	MIC, Gram positive S. epidermidis [3] [µg/mL]	Hemolysis HC10 [4] [µg/mL]	Hemolysis HC50 [4] [µg/mL]	MIC, Gram positive E. faecalis [5] [µg/mL]	MIC, Gram negative E. coli [6] [µg/mL]	MIC, Gram positive B. subtilis [7] [µg/mL]	MIC, Gram negative K. pneumoniae [9] [µg/mL]	MIC, Gram negative P. aeruginosa [11] [µg/mL]	other results
NCCCC[C@H](N)CN(CC(=O)N[C@@H](CCCCN)CN(CC(=O)N[C@@H](CCCCN)CN(CC(=O)N[C@@H](CCCCN)CN(CC(=O)N[C@@H](CCCCN)CN(CC(=O)N[C@@H](CCCCN)CN(CC(=O)N[C@@H](CCCCN)CN(CC(N)=O)C(=O)CCc1ccccc1)C(=O)CCc1ccccc1)C(=O)CCc1ccccc1)C(=O)CCc1ccccc1)C(=O)CCc1ccccc1)C(=O)CCc1ccccc1)C(=O)CCc1ccccc1 [γ3]	12.5 to 25	12.5 to 25	6.25 to 12.5	>500	12.5 to 25	2.5 to 5	2.5 (≈ 1.17 µM)	25 to 50	>100	–	–	–	–	–	–	–	–	–	–	–
CCCCCCCCCCCC(=O)N[C@@H](CCCCN)CN(CC(N)=O)C(=O)CCCN [Sequence 1]	–	–	–	–	–	–	–	–	–	>50	>50	>50	400	> 500	>50	>50	>50	>50	>50	antimicrobial activity against the tested panel, in words [10]: not active toward any microorganism
CCn1cc(C(=O)O)c(=O)c2cc(F)c(N3CCNCC3)cc21 [norfloxacin, reference compound]	–	–	–	–	–	–	–	–	–	–	–	–	–	–	–	–	–	–	–	passages after which the MIC started to increase [12]: three
NCCCC[C@@H](C(N)=O)N(CCNC(=O)[C@H](CCCCN)N(CCNC(=O)[C@H](CCCCN)N(CCNC(=O)[C@H](CCCCN)N(CCNC(=O)[C@H](CCCCN)N(CCNC(=O)[C@H](CCCCN)N(CCNC(=O)[C@H](CCCCN)N(CCN)C(=O)CCc1ccccc1)C(=O)CCc1ccccc1)C(=O)CCc1ccccc1)C(=O)CCc1ccccc1)C(=O)CCc1ccccc1)C(=O)CCc1ccccc1)C(=O)CCc1ccccc1 [α1, reference compound]	20 to 30	–	–	–	–	4.5 (≈ 2.1 µM)	2 (≈ 0.934 µM)	–	>100	–	–	–	–	–	–	–	–	–	–	MIC, S. aureus (methicillin-resistant) ([2]; ATCC 33592): 75 µg/mL (≈ 35 µM); MIC, S. epidermidis (multi-drug resistant) ([3]; multi-drug resistant (RP62A)): 10 µg/mL (≈ 4.67 µM); Hemolysis (H50) ([4]; Table 1, concentration at which 50% hemolysis was observed): >500 µg/mL; MIC, E. faecalis (vancomycin-resistant) ([5]; ATCC 700802): 75 µg/mL (≈ 35 µM); MIC, MRSA USA100 (leading hospital-associated strain) ([13]; USA100): >100 µg/mL; MIC, B. anthracis (lethal bioweapon) [8]: >100 µg/mL
GIGKFLKKAKKFGKAFVKILKK-NH2 [Pexiganan, pexiganan]	–	–	–	–	–	–	–	–	–	–	–	–	–	–	–	–	–	–	–	Hemolysis (H50) [14]: >500 µg/mL; Hemolysis H10 [14]: 181 µg/mL; Hemolysis H50 [14]: 495 µg/mL
KFKFKFKFKFKFKF-NH2 [pl, reference compound]	>100	>100	>100	>500	>100	>100	>100	–	>100	–	–	–	–	–	–	–	–	–	–	antimicrobial activity against the tested panel, in words [10]: does not show any antimicrobial activity at all
CCCCCCCCCCCCCCCC(=O)N[C@@H](C)CN(CC(=O)N[C@@H](C)CN(CC(=O)N[C@@H](CCCCN)CN(CC(=O)N[C@@H](CCCCN)CN(CC(=O)N[C@@H](CCCCN)CN(CC(N)=O)C(=O)CCCN)C(=O)CCCN)C(=O)CCCN)C(C)=O)C(C)=O [Sequence 5]	–	–	–	–	–	–	–	–	–	7.5 (≈ 5.61 µM)	10 (≈ 7.48 µM)	10 (≈ 7.48 µM)	200	> 500	10 (≈ 7.48 µM)	2.5 (≈ 1.87 µM)	2.5 (≈ 1.87 µM)	15 (≈ 11.2 µM)	15 (≈ 11.2 µM)	–
CCCCCCCCCCCCCCCC(=O)N[C@@H](CCCCN)CN(CC(N)=O)C(=O)CCCN [Sequence 2]	–	–	–	–	–	–	–	–	–	2 (≈ 3.91 µM)	2.5 (≈ 4.88 µM)	2 (≈ 3.91 µM)	25	40	2.5 (≈ 4.88 µM)	2.5 (≈ 4.88 µM)	1.5 (≈ 2.93 µM)	35 (≈ 68.4 µM)	10 (≈ 19.5 µM)	–
CC(C)C[C@@H](CN(CC(=O)N[C@@H](CCCCN)CN(CC(N)=O)C(=O)CCc1ccccc1)C(=O)CCc1ccccc1)NC(=O)CN(C[C@H](CCCCN)NC(=O)CN(C[C@H](CCCCN)NC(=O)CN(C[C@H](CC(C)C)NC(=O)CN(C[C@H](CCCCN)NC(=O)CN(C[C@@H](N)CCCCN)C(=O)CCc1ccccc1)C(=O)CCc1ccccc1)C(=O)CCc1ccccc1)C(=O)CCc1ccccc1)C(=O)CCc1ccccc1 [γ5]	5 to 10	5 (≈ 2.37 µM)	3.1 to 6.25	300	3.1 to 6.25	2.5 to 5	2 (≈ 0.947 µM)	5 (≈ 2.37 µM)	5 (≈ 2.37 µM)	8 (≈ 3.79 µM)	5 (≈ 2.37 µM)	5 (≈ 2.37 µM)	75	300	5 (≈ 2.37 µM)	3 (≈ 1.42 µM)	2 (≈ 0.947 µM)	5 (≈ 2.37 µM)	>50	MIC, Fungi C. albicans ([1]; ATCC 10231): 5 to 10 µg/mL; MIC, S. epidermidis (multi-drug resistant) ([3]; Table 3): 3.1 to 6.3 µg/mL; Hemolysis H10 [4]: 75 µg/mL; Hemolysis H50 [4]: 300 µg/mL; MIC, E. faecalis (vancomycin-resistant) ([5]; Table 3): 3.1 to 6.3 µg/mL; MIC, MRSA USA100 (leading hospital-associated strain) ([13]; Table 1): 5 µg/mL (≈ 2.37 µM); MIC, MRSA USA100 ([13]; Table 3): 5 µg/mL (≈ 2.37 µM); MIC, P. aeruginosa [11]: 25 to 50 µg/mL
CC(C)C[C@@H](CN(CC(=O)N[C@@H](CCCCN)CN(CC(=O)N[C@@H](CCCCN)CN(CC(=O)N[C@@H](CCCCN)CN(CC(N)=O)C(=O)CCc1ccccc1)C(=O)CCc1ccccc1)C(=O)CCc1ccccc1)C(=O)CCc1ccccc1)NC(=O)CN(C[C@H](CCCCN)NC(=O)CN(C[C@H](CCCCN)NC(=O)CN(C[C@@H](N)CCCCN)C(=O)CCc1ccccc1)C(=O)CCc1ccccc1)C(=O)CCc1ccccc1 [γ4]	12.5 to 25	3.1 to 6.25	3.1 to 6.25	>500	12.5 to 25	2.5 to 5	2.5 (≈ 1.18 µM)	25 to 50	–	–	–	–	–	–	–	–	–	–	–	–
